Reference: patent US10328141B2, “Synthetic vaccines against Streptococcus pneumoniae type 1” (MAX-PLANCK-GESELLSCHAFT ZUR FÖRDERUNG DER WISSENSCHAFTEN …, priority 2013, dated 2019)

Legend:
[1] = test system: human pneumococcal serum 007sp; experiment: Glycan microarray binding of human pneumococcal reference serum 007sp to immobilised saccharides; settings: saccharides coated on modified CodeLink NHS slides; pooled sera of 287 humans immunized with Pneumovax; FIG. 5
Procedure: (§1) Microarray slides coated with the saccharides of general formula (I) were synthesized by conjugating the saccharides of general formula (I) to said modified microarray slides, and incubated with rabbit anti-Streptococcus pneumoniae type 1 typing serum […] in the presence or absence of native Streptococcus pneumoniae type 1 polysaccharide.
[…] Slides were washed three times with water and three times with ethanol, centrifuged to dryness, and stored under argon until spotting. Diluted saccharides of general formula (I) were printed onto the modified microarray slides at 0.4 nL per spot by an automatic piezoelectric arraying robot (Scienion, Berlin, Germany). For completion of the immobilization reaction, printed slides were stored for 24 h in a humidified chamber.
(§2) Microarray slides were washed three times with water. Unreacted maleimide was quenched by submerging the slides in β-mercaptoethanol (0.1%, v/v) in PBS for 1 h at room temperature. Slides were washed three times with water and with ethanol, centrifuged to dryness, and blocked with BSA (1%, w/v) in PBS for 1 h at room temperature. Blocked slides were washed (2×PBS, 3×water), centrifuged, and incubated with the sera dilutions.
CodeLink NHS slides were incubated for 24 h (1% w/v in PBS) at 4° C. […]

[2] = test system: rabbit anti-Streptococcus pneumoniae type 1 typing serum; experiment: Glycan microarray binding of rabbit anti-SP1 typing serum to immobilised saccharides; settings: saccharides coated on modified GAPS II or CodeLink NHS slides; FIGS. 6-8
Procedure: as §1
Maleimide-functionalized microarrays were produced by submerging amine-coated slides (GAPS II slides, Corning) in 6-maleimidohexanoic acid N-hydroxysuccinimide ester (2 mM) in dry DMF with diisopropylethylamine (2.5% v/v) for 24 h at room temperature. Slides were washed three times with water and three times with ethanol, centrifuged to dryness, and stored under argon until spotting. Diluted saccharides of general formula (I) were printed onto the modified microarray slides at 0.4 nL per spot by an automatic piezoelectric arraying robot (Scienion, Berlin, Germany). For completion of the immobilization reaction, printed slides were stored for 24 h in a humidified chamber.
as §2, with “Blocked slides were washed (2×PBS, 3×water), centrifuged, and incubated with the sera dilutions.” left out

## CC(=O)N[C@H]1[C@@H](O[C@@H]2[C@H](O)[C@@H](O)[C@@H](O[C@H]3[C@@H](O)[C@@H](C(=O)O)O[C@H](O)[C@@H]3O)O[C@@H]2C(=O)O)O[C@H](C)[C@H](N)[C@@H]1O [α-2,4,6-trideoxy-4-amino-D-GalNAc-(1→4)-α-D-GalAp-(1→3)-α-D-GalAp]
[1]
  binding of human pneumococcal serum 007sp to saccharide structure on microarray slides: bound
[2]
  binding of rabbit anti-Streptococcus pneumoniae type 1 typing serum to saccharide structure on microarray slides: bound

## O=C(O)[C@H]1O[C@H](O[C@H]2[C@@H](O)[C@@H](C(=O)O)O[C@H](O)[C@@H]2O)[C@H](O)[C@@H](O)[C@H]1O [α-D-GalAp-(1→3)-α-D-GalAp]
[1]
  binding of human pneumococcal serum 007sp to saccharide structure on microarray slides: bound
[2]
  binding of rabbit anti-Streptococcus pneumoniae type 1 typing serum to saccharide structure on microarray slides: bound
